Assay results from patent US20170199175A1, “DEVICE AND METHOD FOR ASSESSING CELL CONTRACTION” (The Governing Council of the University of Toronto, priority 2014, published 2017).
Entries after “also recorded” stand apart in the source; their conditions may differ.

What was measured:
[1] = test system: hES2-derived cardiomyocytes; assay: Wrinkling-based contraction analysis of periodically contracting cardiomyocyte colonies on silicone elastomer film; format: cell-based, human; conditions: live treatment in three concentrations (high, medium, low): ouabain and nifidepine 0.3, 3, 30 μM; isoproterenol and blebbistatin 0.1, 1, 10 μM
Experimental: To meet standard requirements on product shelf life and ease-of-shipping, the surface treatment method was refined to provide the film surface with a dry layer of adhesive protein. The improved treatment process (“APTES/EDAC”) comprises sequential oxidation with plasma oxygen, 1% APTES for 90 min, 100 μg/ml 1-Ethyl-3-(3-dimethylaminopropyl) carbodiimide (EDAC) for 10 min (to replace the previous paraformaldehyde step), protein wet coating, and air drying. Fibronectin and gelatin were used as most widely applied proteins to promote cardiomyocyte adhesion.
The number of beating colonies was at least 20-30/well across all protein coatings following APTES/EDAC treatment but <10 beating colonies/well without APTES/EDAC functionalization (FIG. 17C). APTES/EDAC functionalization obtained wrinkles which were visible in ˜50% of all beating colonies (FIG. 17D). APTES/EDAC treated surfaces with fibronectin (2 μg/ml) and gelatin (2 and 20 μg/ml) coating were selected to optimize cell densities for contraction analysis. Cardiomyocyte seeding densities were reduced from 50,000 to 25,000, 10,000 and 5,000 cells/cm^2 and wrinkling percentages were quantified. With cell density adaptation, the percentage of wrinkling among beating colonies reached 80-90% across all protein coatings with 10,000-25,000 cells/cm^2. […] Too low density reduced the number of beating colonies and percentage of wrinkling cells (FIG. 17E). For all further experiments, the plasma oxidized and APTES/EDAC-treated biocompatible silicone elastomers of 96-wells were coated with gelatin at a concentration of 2 μg/ml and provided with 10,000 cells/cm^2 before wrinkling was assessed after 2 days.
Cardiomyocyte contraction was assessed by recording image sequences over at least 15 s with an image acquisition rate of 10 frames/s. Acquisition was performed well-by-well on four image fields per well using the 10× objective of an inverted microscope with motorized stage and fully automated stage/acquisition control. The setup was chosen to provide conditions equivalent to commercially available HTS imaging stations. […] When comparing the signals generated by contracting cardiomyocytes on films with the competitive method of shape analysis on stiff culture substrates, wrinkling analysis delivered a 10-20-fold higher signal (FIG. 18).
Referring to FIG. 28, periodically contracting cardiomyocyte colonies were recorded and live treated with cardiomyocyte affecting drugs in three concentrations (high, medium, low). Ouabain (0.3, 3, 30 μM) increased contraction amplitude at unchanged frequency, nifidepine (0.3, 3, 30 μM) decreased contraction amplitude and increased frequency, isoproterenol (0.1, 1, 10 μM) increased contraction frequency and amplitude, and blebbistatin (0.1, 1, 10 μM) decreased contraction amplitude and frequency.

[2] = test system: fibroblasts; assay: Wrinkling of PDMS silicone elastomer film by contractile fibroblasts (live videomicroscopy, kymograph analysis); format: cell-based, rat; conditions: 1:100 PDMS film, plasma + APTES + paraformaldehyde + collagen; LPA 10 μM, cytochalasin D 1-10 μM, Y27632 10 μM
Experimental: Primary rat lung myofibroblasts and subcutaneous fibroblasts (SCF) were derived from explants and cultured from passage 2-7. All cells, including lineage aortic smooth muscle cells (A7r5) and rat embryonic fibroblasts (REF-52) were cultured in DMEM (Gibco-BRL, Basel, CH), containing 10% FCS and antibiotics. Cytochalasin D (Sigma) was used at 1-10 μM, blebbistatin (Calbiochem, Darmstadt, Germany) at 10 μM, Y27632 (Calbiochem) at 10 μM and lysophosphatic acid (LPA) (Sigma) at 10 μM. For FA maturation analysis, REF-52 were stably transfected with β3 integrin-GFP (16), full-length GFP-paxillin (Zamir et al, 2000), and α-SMA-GFP (Clement et al., 2005), using Fugene 6 (Roche, Reinach, CH).
To reduce pipetting errors and to ameliorate the mixing process, curing agent can be pre-diluted in toluene without changing the elastic properties of the polymerized material. PDMS films of 200 μm thickness were produced by distributing the respective volume with a pipette tip onto glass coverslips (#0, Karl Hecht KG, Sondheim, Germany) at the bottom of homemade observation chambers or on standard culture dishes. Substrates were degassed in a desiccator and polymerized for minimum 3 d at RT. Polymerized films were kept at RT for up to two months without changing compliance. Alternative polymerization protocols using higher curing temperatures are possible but will have an influence on the elastic modulus of the film (Lee et al., 2004). […]
Confocal images of fixed specimen were acquired using a 40× oil immersion objective (HC PL APO, NA 1.25-0.75, Leica, Glattbrugg, CH), mounted on an inverted confocal microscope (DM IRE2 with a laser scanning confocal head TCS SP2 AOBS, Leica). […] Phase contrast sequences were taken at a rate of 1 frame/min and live fluorescence images every 30 min using 20× (Plan-Apochromat, Ph2, NA 0.5) and 40× (Plan-Neofluar, Ph3, NA 1.3 oil immersion, Zeiss) objectives. […]

[3] = test system: cardiomyocytes; conditions: benchmark drugs, Yokoo et al. 2009 / Gai et al. 2009; cited from earlier work

Row | Molecule | contraction (beating) amplitude [1] | contraction (beating) frequency [1] | frequency of beating [3] | also measured
1 | C[C@@H]1O[C@@H](O[C@H]2C[C@@H](O)[C@]3(CO)[C@H]4[C@H](O)C[C@]5(C)[C@@H](C6=CC(=O)OC6)CC[C@]5(O)[C@@H]4CC[C@]3(O)C2)[C@H](O)[C@H](O)[C@H]1O [Ouabain] | increased | unchanged | – | –
2 | C[C@@H](N)[C@H]1CC[C@H](C(=O)Nc2ccncc2)CC1 [Y27632] | – | – | – | cell contraction (number and extension of wrinkles) [2]: completely abolished
3 | CNCC(O)c1ccc(O)c(O)c1 (stereo not drawn) [adrenaline] | – | – | increase | –
4 | Cc1ccc2c(c1)C(=O)C1(O)CCN(c3ccccc3)C1=N2 (stereo not drawn) [blebbistatin] | decreased | decreased | – | –
5 | C=C1[C@@H](C)[C@H]2[C@H](Cc3ccccc3)NC(=O)[C@]23[C@H](OC(C)=O)/C=C/[C@@](C)(O)C(=O)[C@@H](C)C/C=C/[C@H]3[C@@H]1O [cytochalasin D, Cytochalasin D] | – | – | – | cell contraction (number and extension of wrinkles) [2]: completely abolished; also recorded: loss of cell contraction
6 | COc1ccc([C@@H]2Sc3ccccc3N(CCN(C)C)C(=O)[C@@H]2OC(C)=O)cc1 [diltiazem] | – | – | decrease | –
7 | O=C(NCC1CCCCN1)c1cc(OCC(F)(F)F)ccc1OCC(F)(F)F (stereo not drawn) [felcainide] | – | – | decrease | –
8 | CC(C)NCC(O)c1ccc(O)c(O)c1 (stereo not drawn) [isoproterenol] | increased | increased | increase | –
9 | COC(=O)C1=C(C)NC(C)=C(C(=O)OC)C1c1ccccc1[N+](=O)[O-] [nifidepine] | decreased | increased | – | –
10 | CNC[C@H](O)c1cccc(O)c1 [phenylephrine] | – | – | increase | –
11 | CCN(CC)CCNC(=O)c1ccc(N)cc1 [procainamide] | – | – | decrease | –
12 | COc1ccc(CCN(C)CCCC(C#N)(c2ccc(OC)c(OC)c2)C(C)C)cc1OC (stereo not drawn) [verapamil] | – | – | decrease | –
13 | lysophosphatic acid [LPA] | – | – | – | cell contraction (number and extension of wrinkles) [2]: increased cell contraction
